Legend:
[1] = system: EST clone AA237916 (murine SSG); test: GEM analysis, EST clone AA237916; format: in vivo, C57BL/6 mouse
Experimental: Total RNA was prepared from untreated (control) and treated (50 mg/kg of LXRα agonist Compound A) C57BL/6 mouse liver, intestine and kidney. Control and treated RNA samples were used to generate separate pools of unique, fluorescently labeled cDNA probes (performed at Incyte Genomics Inc.). Each (two fluorescent probe) tissue sample was simultaneously applied to a single Incyte Mouse GEM™ 1 microarray where they were competitively reacted with the arrayed cDNA molecules (containing 8,734 cDNA elements). The intensity of the fluorescence at each array element is proportional to the expression level of that particular gene in the sample. Each element of the GEM™ microarray was scanned for the first fluorescent color, and then repeated for the second fluorescent label. The ratio of the two fluorescent intensities provided a quantitative measurement of the relative gene expression level in the two samples. […] A portion of that composite is shown in Table 2, which lists genes having the highest relative expression levels in the treated intestine and their corresponding relative expression levels in liver and kidney. […] One EST in particular, corresponding to Accession Number AA237916, and shown in the first row of Table 2, was selected for further analysis, in part based on its similarity to the Drosophila Brown protein, a member of the ABC superfamily. […]

SSG mRNA = test: Northern blot of SSG mRNA in tissues of treated mice; format: in vivo, C57BL/6 mouse; details: 0, 1, 5 and 50 mg/kg
Experimental: (§1) Total RNA was prepared from untreated (control) and treated (0, 1, 5 and 50 mg/kg of LXRa agonist Compound A) C57BL/6 mouse liver, intestine and kidney. RNA was electrophoresed on 1.2% agarose/formaldehyde gels, transferred to nylon membrane (Ambion, Bright Star), hybridized to ^32P-labeled murine SSG cDNA probe, washed and subjected to autoradiography.

ABC1 mRNA = test: Northern blot of ABC1 mRNA in tissues of treated mice; format: in vivo, C57BL/6 mouse; details: 0, 1, 5 and 50 mg/kg
Experimental: as §1, with “ABC-1, apolipoprotein AI, and GAPDH” for “SSG”, “probes,” for “probe,”

apolipoprotein AI mRNA = test: Northern blot of apolipoprotein AI mRNA in tissues of treated mice; format: in vivo, C57BL/6 mouse; details: liver, intestine and kidney; 0, 1, 5 and 50 mg/kg
Experimental: as §1, with “ABC-1, apolipoprotein AI, and GAPDH” for “SSG”, “probes,” for “probe,”

GAPDH mRNA = test: Northern blot of GAPDH mRNA in tissues of treated mice; format: in vivo, C57BL/6 mouse; details: liver, intestine and kidney; 0, 1, 5 and 50 mg/kg
Experimental: as §1, with “ABC-1, apolipoprotein AI, and GAPDH” for “SSG”, “probes,” for “probe,”

Caco-2 cells = test: [3H]-cholesterol efflux from Caco-2 cells; format: cell-based, human; details: 1 μM, 24 h treatment; efflux media with apolipoprotein AI 10 ug/ml; 8 and 24 hour time points
Experimental: Caco2 cells (an adenocarcinoma cell line derived from human colon) were plated in 6 well plates at 50-60% confluence and allowed to adhere overnight in DMEM containing 10% FBS, non-essential amino acids, and Pen/Strep. On the second day, cells were labeled for 24 h with [^3H]-cholesterol (0.5 μCi/ml in DMEM and 1% BSA, Pen/Strep). Cells were washed (2×) with PBS and DMEM (1% BSA) with or without the addition of Compound A (1 μM final concentration). After 24 h treatment, cells were washed (2× with PBS) and efflux media was added containing purified apolipoprotein AI (10 ug/ml). Cells and media were harvested at 8 and 24 hour time points. Cells were washed 3× with PBS, and lysed with 300 μl of 0.5 M NaOH. Radioactivity in media and cell lysates were scintillation counted and normalized to cell protein (using BioRad Lowry Kit). Efflux data shown in is presented as CPM (media)/mg cell protein (FIG. 4).

human ABC1 = test: Northern blot, ABC1 expression in Caco-2 cells; format: cell-based; details: Human Caco-2 cells
Experimental: (§2) Human Caco-2 cells were treated with Compounds B and C. Northern blot analysis was performed (essentially as described above) using human ABC1 and ABC8 cDNA probes.

human ABC8 = test: Northern blot, ABC8 expression in Caco-2 cells; format: cell-based; details: Human Caco-2 cells
Experimental: as §2

Row | SMILES | induction of EST clone AA237916 (murine SSG) ([1]; intestine of treated mice) [fold] | induction of EST clone AA237916 (murine SSG) ([1]; liver of treated mice) [fold] | SSG expression (mRNA, Northern blot) (SSG mRNA; intestine) | SSG expression (mRNA, Northern blot) (SSG mRNA; liver) | ABC1 mRNA (ABC1 mRNA; intestine) | ABC1 mRNA (ABC1 mRNA; kidney) | ABC1 mRNA (ABC1 mRNA; liver) | apolipoprotein AI mRNA levels (apolipoprotein AI mRNA) | GAPDH mRNA levels (GAPDH mRNA) | cholesterol efflux (Caco-2 cells) | human ABC1 expression (Northern blot) (human ABC1) | human ABC8 expression (Northern blot) (human ABC8)
1 | O=S(=O)(c1ccccc1)N(CC(F)(F)F)c1ccc(C(O)(C(F)(F)F)C(F)(F)F)cc1 [Compound A] | 2.5 | 2.4 | induced | induced | Dose dependent increases | Dose dependent increases | Dose dependent increases | no measurable difference | no measurable difference | Stimulates Cholesterol Efflux | – | –
2 | CC(c1ccco1)N(C(=O)C12CC3CC(CC(C3)C1)C2)c1ccccn1 (centres unmarked) [C] | – | – | – | – | – | – | – | – | – | – | induced | induced
3 | CN(c1ccc(C(O)(C(F)(F)F)C(F)(F)F)cc1)S(=O)(=O)c1ccccc1 [B] | – | – | – | – | – | – | – | – | – | – | induced | induced

Reference: patent US7033810B2, “Sitosterolemia susceptibility gene (SSG): compositions and methods of use” (Amgen Inc., priority 2000, dated 2006)
